Assay [1] has as its target T1, 5-lipoxygenase (Rattus norvegicus, UniProt P12527).
T1 construct: endogenous in cells; host or cells: RBL-1 (rat basophilic leukemia cells, from the American Type Culture Collection)
T1 sequence (P12527 1-673): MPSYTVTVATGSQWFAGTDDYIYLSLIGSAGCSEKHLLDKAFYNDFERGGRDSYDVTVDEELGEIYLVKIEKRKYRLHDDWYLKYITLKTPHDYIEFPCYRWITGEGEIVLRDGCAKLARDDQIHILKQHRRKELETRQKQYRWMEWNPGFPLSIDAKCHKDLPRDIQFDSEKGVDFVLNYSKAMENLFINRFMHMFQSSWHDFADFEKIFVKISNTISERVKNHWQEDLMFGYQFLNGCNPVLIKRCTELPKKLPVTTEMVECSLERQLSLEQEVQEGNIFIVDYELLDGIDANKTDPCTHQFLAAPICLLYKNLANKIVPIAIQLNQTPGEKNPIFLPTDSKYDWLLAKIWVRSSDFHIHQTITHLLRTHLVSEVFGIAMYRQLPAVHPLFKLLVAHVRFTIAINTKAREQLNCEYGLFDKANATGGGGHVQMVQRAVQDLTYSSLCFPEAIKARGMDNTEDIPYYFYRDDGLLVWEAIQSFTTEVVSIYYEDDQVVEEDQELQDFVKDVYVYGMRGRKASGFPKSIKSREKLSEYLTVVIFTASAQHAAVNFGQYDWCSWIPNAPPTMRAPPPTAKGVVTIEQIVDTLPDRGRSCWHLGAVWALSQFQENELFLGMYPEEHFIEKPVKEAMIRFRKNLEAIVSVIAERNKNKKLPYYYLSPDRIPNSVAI
The assay can be described thus: ARBL whole cell 5-lipoxygenase assay (inhibition of LTB4 formation in RBL-1 cells). The class given is cell-based. Particulars: for inhibition at 10 µM: A23187 stimulated; for IC50: A23187 (5 μM) stimulated, LTB4 formation. The method, then:
(§1) ARBL/ARBC WHOLE CELL 5-LIPOXYGENASE AND CYCLOOXYGENASE ASSAYS
(§2) The rat basophilic leukemia cell line (RBL-1) was obtained from the American Type Culture Collection (Rockville, Md.).
(§3) Radioimmunoassay (RIA) kits of LTB4 and PGF2α were obtained from Amersham (Arlington Heights, Ill.) and Seragen (Boston, Mass.), respectively.
(§4) RBL-1 cells are grown in suspension culture in Eagle's minimum essential medium supplemented with 12% fetal bovine serum at 37° C. in an incubator supplied with air 5% carbon dioxide. Cells are harvested by centrifugation. They are washed with cold phosphate buffered saline, pH 7.4 (PBS; NaCl, 7.1 g; Na2 HPO4, 1.15 g; KH2 PO4, 0.2 g; and KCl, 0.2 g/L). Cells are finally suspended in PBS containing 1.0 mM calcium at a density of 2×10^6 cells/mL. Cells are incubated […] test agent (in DMSO) (1% DMSO is without effect on arachidonic acid metabolism) for 10 minutes at room temperature. Calcium ionophore A23187 (5 μM) is added and cells are incubated for 7 minutes at 37° C. The reaction is stopped by chilling the tubes on ice for 10 minutes. Cells are separated by centrifugation and the supernatant is stored at -20° C. Aliquots (100 μL) are analyzed for LTB4 and PGF2α using radioimmunoassay kits as provided by the supplier.
(§5) Table 1 contains biochemical data for compounds of formula I obtained from this whole cell assay as amount of inhibition at 10 μM or IC50 s which are calculated as the concentration of a test compound in micromoles (μM) causing 50% inhibition of LTB4 or PGF2α formation.

In assay [2] the target is T2, cyclooxygenase (Rattus norvegicus, UniProt Q63921).
T2 construct: endogenous in cells; host or cells: RBL-1 (rat basophilic leukemia cells, from the American Type Culture Collection)
T2 sequence (Q63921 27-602): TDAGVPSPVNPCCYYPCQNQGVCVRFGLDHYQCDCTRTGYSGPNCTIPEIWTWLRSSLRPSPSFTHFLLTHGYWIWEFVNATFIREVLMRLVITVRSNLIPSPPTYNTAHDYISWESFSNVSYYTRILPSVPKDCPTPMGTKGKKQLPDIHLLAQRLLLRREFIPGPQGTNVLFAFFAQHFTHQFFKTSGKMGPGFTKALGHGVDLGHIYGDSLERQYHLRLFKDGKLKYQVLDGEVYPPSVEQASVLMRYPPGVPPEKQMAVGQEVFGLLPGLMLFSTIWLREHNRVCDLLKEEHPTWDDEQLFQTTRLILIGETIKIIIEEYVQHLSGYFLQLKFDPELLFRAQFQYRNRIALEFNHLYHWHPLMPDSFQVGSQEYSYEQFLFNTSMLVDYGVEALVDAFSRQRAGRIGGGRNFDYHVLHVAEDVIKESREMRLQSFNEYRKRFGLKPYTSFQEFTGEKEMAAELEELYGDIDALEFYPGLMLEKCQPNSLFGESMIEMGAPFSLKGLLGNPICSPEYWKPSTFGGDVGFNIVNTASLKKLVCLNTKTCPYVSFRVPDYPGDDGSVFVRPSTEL
The assay can be described thus: ARBC whole cell cyclooxygenase assay (inhibition of PGF2α formation in RBL-1 cells). The class given is cell-based. Particulars: for inhibition at 10 µM: A23187 stimulated, read-out: ARBC, inhibition of PGF2; for IC50: A23187 (5 μM) stimulated, PGF2α formation, read-out: ARBC, inhibition of PGF2, IC50. As for the experimental part: as §1, §2, §3, §4, §5

Read-outs that look alike come from different tables or passages of the source.

Data on 5 compounds can be found in patent publication US5143927A, “3-(thiazolidone, oxazolidinone, imidazolidinone)-indoles as antiinflammatory agents” (Warner-Lambert Company, priority 1991, dated 1992).

As a reminder, the inhibition is the drop in the measured response relative to a control, in per cent. A word on the IC50: it is the concentration at which inhibition is half-maximal.

For the compound `COc1ccc2c(c1)c(/C=C1\SC(=S)N(CC(=O)O)C1=O)c(C)n2C(=O)c1ccc(Cl)cc1` [Example 4, (Z)-5-[[1-(4-Chlorobenzoyl)-5-methoxy-2-methyl-1H-indol-3-yl]methylene]-4-oxo-2-thioxo-3-thiazolidine acetic acid], the values for the inhibition at 10 µM in assay [1] (inhibition at 10 μM) and in assay [2] (inhibition at 10 μM) were 90% and 60%, respectively.
In the case of `CSC1=NC(=O)/C(=C/c2c(C)[nH]c3ccccc23)S1` [Example 3, (Z) -5-[(2-Methyl-1H-indol-3-yl)methylene]-2-(methylthio)-4(5H)-thiazolone], the half-maximal inhibitory concentration (IC50) in assay [1] came to 4.43 µM; in assay [2], 0.14 µM.
Regarding `COc1ccc2c(c1)c(/C=C1\SC(N)=NC1=O)c(C)n2C(=O)c1ccc(Cl)cc1` [Example 5, (Z)-5-[[1-(4-Chlorobenzoyl)-5-methoxy-2-methyl-1H-indol-3-yl]methylene]-2-imino-4-thiazolidinone], the inhibition at 10 µM in assay [1] (inhibition at 10 μM) is 48%; in assay [2] (class symbol, 10 μM), < 40%.
`COc1ccc2[nH]c(C)c(/C=C3\SC(NC#N)=NC3=O)c2c1` [Example 2, (Z)-[4,5-Dihydro-5-[(5-methoxy-2-methyl-1H-indol-3-yl)methylene]-4-oxo-2-thiazolyl]-cyanamide]: the inhibition at 10 µM in assay [1] (class symbol, 10 μM) was < 40%; in assay [2] (class symbol, 10 μM), < 40%.
`COc1ccc2[nH]c(C)c(/C=C3\SC(SC)=NC3=O)c2c1` [Example 1, (Z) -5-[(5 -Methoxy-2-methyl-1H -indol-3-yl)methylene]-2-(methylthio)-4(5H)-thiazolone]: the concentration for half-maximal inhibition (IC50) was 8.23 µM in assay [1] and 0.29 µM in assay [2].
